{"source": "paper PMC7083565", "about": "“In vitro metabolism, reaction phenotyping, enzyme kinetics, CYP inhibition and induction potential of ataluren” (Pharmacology Research & Perspectives, 2020)", "key": {"[1]": {"experiment": "Ataluren glucuronidation kinetics, human liver microsomes", "type": "in vitro ADME", "details": "for CLint,u,UGT (scaled) / K m / K m, u / V max: HLM; for CLint,u,UGT (scaled): 40.0 mg protein/g tissue; for K m / K m, u / V max: mean ± SE; for K m / K m, u / V max / fraction unbound at 15 min: n = 3; for fraction unbound at 15 min: human, pooled human liver microsomes incubation mixture, pH 7.5, HLM, mean ± SD, read-out: fu,inc", "procedure": "(§1) Ataluren at 0.5, 2.5, 12.5, 25, 50, 100, 200, and 400 µmol/L, was incubated (n = 3) at 37°C with recombinant human UGT1A9 and with pooled microsomes from human liver, kidney, and intestine (0.025 mg protein/mL, preactivated with alamethicin at 20 µg/mL) in Tris‐HCl buffer (0.1 mol/L, pH 7.5), in the presence of 1 mmol/L EDTA, 5 mmol/L MgCl2, with or without 0.5%, 1%, or 2% BSA. The incubation (100 µL final volume with 0.5% DMSO) was started by adding an equal volume of UDPGA (5 mmol/L) in Tris‐HCl buffer (0.1 mol/L, pH 7.5). After 30 minutes incubation, the incubation mixtures were combined with 0.3 mL of an internal standard solution in acetonitrile with 1% formic acid, followed by membrane plate filtration. The filtrates were used for LC‐MS/MS analysis to quantify the formation of ataluren‐O‐1β‐acyl glucuronide. Detailed LC‐MS/MS conditions are summarized in LC‐MS/MS Analysis section. Ataluren acyl glucuronide formation rate after 30 minutes incubation was calculated using the amount of metabolite formed (pmol) divided by the protein amount in the incubation sample (0.0025 mg) and the incubation time (30 minutes). Ataluren glucuronidation kinetic parameters were determined with and without adjusting BSA binding by nonlinear regression (GraphPad Prism, 5version 5.04, GraphPad Software, Inc.) using Michaelis‐Menten equation which was the best fit compared with other models. The intrinsic clearance was calculated as CLint = Vmax/Km. In order to compare unbound intrinsic clearance by glucuronidation (CLint,u,UGT) in different tissues, CLint,u,UGT was expressed per gram of tissue by correcting the values for the microsomal protein yield, resulting in scaled CLint,u,UGT. Microsomal protein yields of 40.0, 12.8, and 20.6 mg protein/g tissue were used for hepatic, renal, and intestinal data, respectively. ^26\n(§2) The high‐throughput membrane ultrafiltration method ^27 was used to determine the fraction unbound in the incubation (n = 3). Incubation mixtures and procedures were essentially the same as the above except that UDPGA (5 mmol/L) was replaced with Tris‐HCl buffer (0.1 mol/L, pH 7.5). After 15 minutes incubation, aliquot was transferred to a Millipore Multiscreen Ultracel‐10 filter plate (10 kDa molecular mass cut off; EMD Millipore). The plate was centrifuged at 37°C and 3710 g. After 30 minutes centrifugation, aliquots of ultrafiltrates and incubation mixtures prior to ultrafiltration were quenched with an internal standard solution in acetonitrile, followed by membrane plate filtration. The filtrates were used for LC‐MS/MS analysis to quantify the concentration of ataluren. The same LC‐MS/MS conditions described above are summarized in LC‐MS/MS Analysis section. The free fraction = Cu/Cm, where Cu is the concentration of ataluren in the ultrafiltrate and Cm is the concentration of ataluren in the incubation system before centrifugation. Unbound Km (Km, u) was recalculated by applying Michaelis‐Menten equation using free ataluren concentrations after correcting BSA binding at each ataluren and BSA concentration level.\n(§3) Quantification of ataluren‐O‐1β‐acyl glucuronide formation was conducted on an Accela pump and a PAL autosampler equipped with a TSQ Quantum Ultra mass spectrometer (Thermo Fisher Scientific). A Waters Acquity BEH column (C18, 1.7 µm, 50 × 2.1 mm; Waters Cooperation) was used and maintained at 50°C. The mobile phases were 0.1% formic acid in water (A) and acetonitrile (B). The flow rate was 0.6 mL/min and gradient program was as follows: linear gradient from 0% B to 95% B in 0.5 minutes and hold isocratic at 95% B for 1 minute; linear gradient from 95% B to 0% B in 0.1 minutes and hold isocratic at 0% B for 0.4 minutes. TSQ Quantum Ultra mass spectrometer was equipped with a heated electrospray ionization source operated in negative‐ion mode with a vaporizer temperature of 350°C, capillary temperature of 380°C, and spray voltage of 3 kV. […]"}, "[2]": {"test_system": "UGT (glucuronidation)", "experiment": "Ataluren glucuronidation kinetics, human liver microsomes", "type": "in vitro ADME", "details": "human, pooled human liver microsomes, pH 7.5, HLM, read-out: CLint,u,UGT", "procedure": "as §1, §2, §3"}, "[3]": {"test_system": "CYP3A4/5", "experiment": "CYP induction in primary human hepatocytes: CYP3A4/5", "type": "in vitro ADME", "details": "Testosterone 6β-hydroxylase, 48 hours, n=3", "procedure": "Human hepatocytes isolated from three Caucasian males were transferred to 48‐well collagen‐coated plates at 0.14 × 10^6 cells/well in planting media for attachment. After attachment, planting media was replaced with sandwich media and the cells were incubated until clusters were established. […] The incubation solutions were aspirated and replaced with freshly prepared incubation solutions containing ataluren for an additional 24 hours. […] The incubation solutions were then aspirated and 150 µL of K‐H buffer containing CYP substrates were added. The hepatocytes were incubated for 30 minutes for CYP2C8 (10 µmol/L amodiaquine), 1 hour for CYP3A4 (125 µmol/L testosterone), and 4 hours for CYPs 1A2 (100 µmol/L phenacetin), 2A6 (100 µmol/L coumarin), 2B6 (150 µmol/L bupropion), 2C9 (50 µmol/L tolbutamide), 2C19 (100 µmol/L S‐mephenytoin), and 2E1 (300 µmol/L chlorzoxazone) activity assays. The reactions were stopped by the addition of 0.15 mL of ice‐cold methanol except that coumarin‐treated cells were incubated with β‐glucuronidase and aryl sulfatase for additional 1 hour to free 7‐hydroxycoumarin before the addition of 0.2 mL of ice‐cold methanol. Metabolite formation in incubations with test compounds and control inhibitors was assessed with validated LC‐MS/MS methods for each of the reaction products as described in Table S2. Enzymatic activity for each CYP was calculated using the absolute amount of metabolite formed (pmol) divided by hepatocytes in the incubation (million cells) and the incubation time (minute). The relative fold induction in enzymatic activity was calculated by comparing the rate of metabolite formation for treatment groups to that of the solvent control group (reported as vehicle control%) or positive control group (reported as positive control%)."}, "[4]": {"experiment": "Steady-state plasma Cmax in DMD patients", "type": "in vivo, human"}}, "note": "Where two headings read alike, the source gives them in different places."}
{"smiles": "O=C(O)c1cccc(-c2noc(-c3ccccc3F)n2)c1", "note": "[ataluren, Ataluren]", "values": [{"measurement": "CLint,u,UGT (scaled)", "setting": "[1]; 0% BSA", "value": "1.61 mL/min/g of tissue"}, {"measurement": "K m", "setting": "[1]; 0% BSA", "value": "29.9 ± 4.49", "unit": "µM"}, {"measurement": "K m, u", "setting": "[1]; 0% BSA", "value": "29.9 ± 4.49", "unit": "µM"}, {"measurement": "V max", "setting": "[1]; 0% BSA", "value": "1204 ± 49.0", "unit": "pmol/min/mg"}, {"measurement": "CLint,u,UGT (scaled)", "setting": "[1]; 0.5% BSA", "value": "13.0 mL/min/g of tissue"}, {"measurement": "K m", "setting": "[1]; 0.5% BSA", "value": "54.3 ± 9.42", "unit": "µM"}, {"measurement": "K m, u", "setting": "[1]; 0.5% BSA", "value": "4.50 ± 0.748", "unit": "µM"}, {"measurement": "V max", "setting": "[1]; 0.5% BSA", "value": "1465 ± 68.2", "unit": "pmol/min/mg"}, {"measurement": "CLint,u,UGT (scaled)", "setting": "[1]; 1% BSA", "value": "16.9 mL/min/g of tissue"}, {"measurement": "K m", "setting": "[1]; 1% BSA", "value": "67.9 ± 9.19", "unit": "µM"}, {"measurement": "K m, u", "setting": "[1]; 1% BSA", "value": "3.00 ± 0.415", "unit": "µM"}, {"measurement": "V max", "setting": "[1]; 1% BSA", "value": "1264 ± 53.5", "unit": "pmol/min/mg"}, {"measurement": "CLint,u,UGT (scaled)", "setting": "[1]; 2% BSA", "value": "12.5 mL/min/g of tissue"}, {"measurement": "K m", "setting": "[1]; 2% BSA", "value": "108 ± 10.7", "unit": "µM"}, {"measurement": "K m, u", "setting": "[1]; 2% BSA", "value": "2.83 ± 0.315", "unit": "µM"}, {"measurement": "V max", "setting": "[1]; 2% BSA", "value": "886 ± 34.7", "unit": "pmol/min/mg"}, {"measurement": "maximal effect of BSA on CLint,u (increase)", "setting": "[1]; human liver microsomes, with vs without BSA", "value": "~10", "unit": "fold"}, {"measurement": "fraction unbound at 15 min", "setting": "[1]; 0% BSA", "value": "1 ± 0.12"}, {"measurement": "fraction unbound at 15 min", "setting": "[1]; 0.5% BSA", "value": "0.093 ± 0.006"}, {"measurement": "fraction unbound at 15 min", "setting": "[1]; 1% BSA", "value": "0.05 ± 0.007"}, {"measurement": "fraction unbound at 15 min", "setting": "[1]; 2% BSA", "value": "0.03 ± 0.005"}, {"measurement": "microsomal CLint", "setting": "[2]; 0% BSA", "value": 40.3, "unit": "µL/min/mg"}, {"measurement": "microsomal CLint", "setting": "[2]; 0.5% BSA", "value": 326, "unit": "µL/min/mg"}, {"measurement": "microsomal CLint", "setting": "[2]; 1% BSA", "value": 421, "unit": "µL/min/mg"}, {"measurement": "microsomal CLint", "setting": "[2]; 2% BSA", "value": 313, "unit": "µL/min/mg"}, {"measurement": "Positive control %, Mean", "setting": "[3]; ataluren 4 µM", "value": 0.594, "unit": "%"}, {"measurement": "Vehicle control %, Mean", "setting": "[3]; ataluren 4 µM", "value": 103, "unit": "%"}, {"measurement": "Positive control %, Mean", "setting": "[3]; ataluren 40 µM", "value": 1.52, "unit": "%"}, {"measurement": "Vehicle control %, Mean", "setting": "[3]; ataluren 40 µM", "value": 105, "unit": "%"}, {"measurement": "Positive control %, Mean", "setting": "[3]; ataluren 400 µM", "value": 3.72, "unit": "%"}, {"measurement": "Vehicle control %, Mean", "setting": "[3]; ataluren 400 µM", "value": 109, "unit": "%"}, {"measurement": "free Cmax at the steady state", "setting": "[4]; conservative, assuming free fraction value of 1%", "value": "~800", "unit": "nM"}, {"measurement": "free Cmax at the steady state", "setting": "[4]; using free fraction value of 0.4% as measured", "value": "around 0.32 µmol/L"}]}
